For the assay, the system named is adipose tissues of the C57BL/6J (ob/ob) mice. In words: Ex vivo lipogenesis in adipose tissues of treated ob/ob mice ([C14]-glucose incorporated into lipid). The arrangement: species or system mouse. From the text:
FIGS. 5A & 5B depict the ex vivo effect on lipogenesis in adipose tissues of the C57BL/6J (ob/ob) male mice (5A) and female mice (5B) after 18-day treatment with hGH 177-191. […] The differences between the hGH 177-191 treated and saline control groups were statistically significant.
The procedure for the isolation and measurement of intact epididymal fat pads was established in previous studies of epididymal growth of GH-deficient (lit/lit) mice. In the present study, white adipose tissues, either whole epididymal or parametrical fat pads, were excised with the identical techniques as previously described^22 from the mice immediately after sacrifice. The tissues were washed in cold physiological saline, blotted and weighed. For ex vivo lipogenic assays, the portions of adipose tissues without blood vessels were used.
The rate of the incorporation of exogenous [C^14]-glucose into total lipid in adipose tissue was measured as the index of anti-lipogenic activity of hGH 177-191.
Adipose tissues were sliced into segments of approximately 200 mg each and then placed in Krebs-Ringer bicarbonate (KRB) buffer (pH 7.4) containing 2% defatted BSA, and glucose (0.1 mg/ml) and gassed with 95% O2-5% CO2 at 37° C. […] The [C^14] radioactivity was measured with a liquid scintillation counter. The rates of total lipid synthesis were expressed as μmol [C^14]-glucose incorporated into lipid/g tissue/hr.

Where no end group is shown, it is not given here.

For the sequence “LRIVQCRSVEGSCGF (cysteine pairing not given here) [Ref No. 9401]”, the “tissue lipogenic activity ([C14]-glucose incorporated into lipid)” value amounted to 2.99±0.21 pmol/mg tissue/min (female ob/ob mice after 18-day treatment) and 2.33±0.21 pmol/mg tissue/min (male ob/ob mice after 18-day treatment).

Source of the values: patent US6737407B1, “Treatment of obesity” (Metabolic Pharmaceuticals, Ltd., priority 1997, dated 2004).
